The assay has as its system MV-4-11 cells. Put plainly: Gene expression microarray analysis (Affymetrix PrimeView) and GSEA. The following applies: ProbeSet 11758919_x_at; LIST D. The class given is cell-based, human. The arrangement: RFU PODN (11730768_x_at) / Fold change /veh PODN (11730768_x_at) / RFU LINC00158 (11744669_a_at) / Fold change /veh LINC00158 (11744669_a_at) / RFU DUSP10 (11751237_a_at) / Fold change /veh DUSP10 (11751237_a_at) / RFU ID3 (11757404_x_at) / Fold change /veh ID3 (11757404_x_at) / RFU PLEKHG5 (11737974_s_at) / Fold change /veh PLEKHG5 (11737974_s_at) / RFU LRRC4B (11730491_at) / Fold change /veh LRRC4B (11730491_at) / RFU GIMAP4 (11747438_a_at) / Fold change /veh GIMAP4 (11747438_a_at) / RFU KRT8 (11758183_x_at) / Fold change /veh KRT8 (11758183_x_at) / RFU CNN1 (11734310_a_at) / Fold change /veh CNN1 (11734310_a_at) / RFU VPS37D (11726825_at) / Fold change /veh VPS37D (11726825_at) / RFU C10orf10 (11716522_x_at) / Fold change /veh C10orf10 (11716522_x_at) / RFU KIR2DL2 /// KIR2DL4 /// KIR2DL5A /// KIR2DL5B /// KIR2DS1 /// KIR2DS2 /// KIR2DS3 /// KIR2DS4 /// KIR3DL3 /// KIR3DL3 /// KIR3DS1 (11738374_at) / Fold change /veh KIR2DL2 /// KIR2DL4 /// KIR2DL5A /// KIR2DL5B /// KIR2DS1 /// KIR2DS2 /// KIR2DS3 /// KIR2DS4 /// KIR3DL3 /// KIR3DL3 /// KIR3DS1 (11738374_at) / RFU C1QL1 (11718748_at) / Fold change /veh C1QL1 (11718748_at) / RFU TMPRSS4 (11747572_a_at) / Fold change /veh TMPRSS4 (11747572_a_at) / RFU HAMP (11756126_x_at) / Fold change /veh HAMP (11756126_x_at) / RFU RNFT2 (11725882_a_at) / Fold change /veh RNFT2 (11725882_a_at) / RFU NR4A2 (11747474_a_at) / Fold change /veh NR4A2 (11747474_a_at) / RFU ABCC12 (11746883_a_at) / Fold change /veh ABCC12 (11746883_a_at) / RFU TMEM136 (11760407_x_at) / Fold change /veh TMEM136 (11760407_x_at) / RFU CLDN22 /// WWC2 (11732394_at) / Fold change /veh CLDN22 /// WWC2 (11732394_at) / RFU HLA-DPB1 (11760878_x_at) / Fold change /veh HLA-DPB1 (11760878_x_at) / RFU SPINT1 (11716480_a_at) / Fold change /veh SPINT1 (11716480_a_at) / RFU GAP43 (11754022_s_at) / Fold change /veh GAP43 (11754022_s_at) / RFU A4GNT (11735810_at) / Fold change /veh A4GNT (11735810_at) / RFU PRB3 (11715151_x_at) / Fold change /veh PRB3 (11715151_x_at) / RFU TUBB4B (11761932_at) / Fold change /veh TUBB4B (11761932_at) / RFU CAPN14 (11732068_a_at) / Fold change /veh CAPN14 (11732068_a_at) / RFU TMCC2 (11721928_a_at) / Fold change /veh TMCC2 (11721928_a_at) / RFU IRGQ (11745062_a_at) / Fold change /veh IRGQ (11745062_a_at) / RFU FAM174B (11720279_a_at) / Fold change /veh FAM174B (11720279_a_at) / RFU TMPRSS4 (11748680_a_at) / Fold change /veh TMPRSS4 (11748680_a_at) / RFU FAM212B (11763350_a_at) / Fold change /veh FAM212B (11763350_a_at) / RFU PLEKHG5 (11743358_a_at) / Fold change /veh PLEKHG5 (11743358_a_at) / RFU ZSCAN30 (11745921_a_at) / Fold change /veh ZSCAN30 (11745921_a_at) / RFU CMKLR1 (11741424_a_at) / Fold change /veh CMKLR1 (11741424_a_at) / RFU LOC101060620 /// MAPK8IP1 (11723275_at) / Fold change /veh LOC101060620 /// MAPK8IP1 (11723275_at) / RFU SPTSSB (11747773_x_at) / Fold change /veh SPTSSB (11747773_x_at) / RFU PRSS12 (11739890_at) / Fold change /veh PRSS12 (11739890_at) / RFU BIN1 (11741810_x_at) / Fold change /veh BIN1 (11741810_x_at) / RFU WNT11 (11732464_a_at) / Fold change /veh WNT11 (11732464_a_at) / RFU C10orf10 (11716521_a_at) / Fold change /veh C10orf10 (11716521_a_at) / RFU C5orf56 (11738089_at) / Fold change /veh C5orf56 (11738089_at) / RFU CYB561 (11721691_x_at) / Fold change /veh CYB561 (11721691_x_at) / RFU ANKRD19P (11752326_a_at) / Fold change /veh ANKRD19P (11752326_a_at) / RFU OR2T12 /// OR2T33 /// OR2T8 (11738714_s_at) / Fold change /veh OR2T12 /// OR2T33 /// OR2T8 (11738714_s_at) / RFU VCAN (11748164_a_at) / Fold change /veh VCAN (11748164_a_at) / RFU JSRP1 (11732532_at) / Fold change /veh JSRP1 (11732532_at) / RFU KRTAP10-11 (11738290_x_at) / Fold change /veh KRTAP10-11 (11738290_x_at) / RFU MYO3A (11730013_a_at) / Fold change /veh MYO3A (11730013_a_at) / RFU EBF3 (11725865_a_at) / Fold change /veh EBF3 (11725865_a_at) / RFU CAMK2N1 (11719241_x_at) / Fold change /veh CAMK2N1 (11719241_x_at) / RFU C5orf56 (11738088_a_at) / Fold change /veh C5orf56 (11738088_a_at) / RFU OLFML3 (11715873_a_at) / Fold change /veh OLFML3 (11715873_a_at) / RFU LOC100653217 /// NTM (11731650_a_at) / Fold change /veh LOC100653217 /// NTM (11731650_a_at) / RFU MAPK11 (11762145_a_at) / Fold change /veh MAPK11 (11762145_a_at) / RFU FIZ1 (11724087_x_at) / Fold change /veh FIZ1 (11724087_x_at) / RFU OASL (11726364_x_at) / Fold change /veh OASL (11726364_x_at) / RFU SOX15 (11748057_x_at) / Fold change /veh SOX15 (11748057_x_at) / RFU CD79A (11719716_a_at) / Fold change /veh CD79A (11719716_a_at) / RFU HIST1H1D (11736915_at) / Fold change /veh HIST1H1D (11736915_at) / RFU CASKIN2 (11723855_a_at) / Fold change /veh CASKIN2 (11723855_a_at) / RFU LOC730098 (11760151_x_at) / Fold change /veh LOC730098 (11760151_x_at) / RFU OR4N2 (11742367_at) / Fold change /veh OR4N2 (11742367_at) / RFU PRRT2 (11749266_a_at) / Fold change /veh PRRT2 (11749266_a_at) / RFU SNX32 (11753110_a_at) / Fold change /veh SNX32 (11753110_a_at) / RFU CDHR5 (11726645_a_at) / Fold change /veh CDHR5 (11726645_a_at) / RFU RCAN1 (11760418_a_at) / Fold change /veh RCAN1 (11760418_a_at) / RFU FAM167A (11723789_a_at) / Fold change /veh FAM167A (11723789_a_at) / RFU FAM26E (11764081_at) / Fold change /veh FAM26E (11764081_at) / RFU ISYNA1 (11749810_s_at) / Fold change /veh ISYNA1 (11749810_s_at) / RFU ACY1 (11761880_at) / Fold change /veh ACY1 (11761880_at) / RFU 11764098_at / Fold change /veh 11764098_at / RFU SAMD14 (11745864_x_at) / Fold change /veh SAMD14 (11745864_x_at) / RFU NPB (11741838_a_at) / Fold change /veh NPB (11741838_a_at) / RFU TMPRSS6 (11731388_a_at) / Fold change /veh TMPRSS6 (11731388_a_at) / RFU KRTAP10-2 (11738614_at) / Fold change /veh KRTAP10-2 (11738614_at) / RFU ARHGAP8 /// PRR5-ARHGAP8 (11727945_x_at) / Fold change /veh ARHGAP8 /// PRR5-ARHGAP8 (11727945_x_at) / RFU KRTAP5-7 /// NADSYN1 (11734609_at) / Fold change /veh KRTAP5-7 /// NADSYN1 (11734609_at) / RFU RASL12 (11751679_a_at) / Fold change /veh RASL12 (11751679_a_at) / RFU CDKN2B (11736163_a_at) / Fold change /veh CDKN2B (11736163_a_at) / RFU PRF1 (11729649_at) / Fold change /veh PRF1 (11729649_at) / RFU, ZNF638 /// ZNF638-IT1 / Fold change vs veh, ZNF638 /// ZNF638-IT1 / RFU, PANK3 / Fold change vs veh, PANK3 / RFU, SH3YL1 / Fold change vs veh, SH3YL1 / RFU, ZEB2 / Fold change vs veh, ZEB2 / RFU, NRIP1 / Fold change vs veh, NRIP1 / RFU, PTTG1IP / Fold change vs veh, PTTG1IP / RFU, CAPN2 / Fold change vs veh, CAPN2 / RFU, MED14 / Fold change vs veh, MED14 / RFU, SNORA58 / Fold change vs veh, SNORA58 / RFU, C1orf63 / Fold change vs veh, C1orf63 / RFU, LRRFIP1 / Fold change vs veh, LRRFIP1 / RFU, NDUFAF7 / Fold change vs veh, NDUFAF7 / RFU, SLC12A2 / Fold change vs veh, SLC12A2 / RFU, IBTK / Fold change vs veh, IBTK / RFU, ESF1 / Fold change vs veh, ESF1 / Fold change vs veh, TMEM50B / RFU, TAOK1 / Fold change vs veh, TAOK1 / RFU, ACBD3 / Fold change vs veh, ACBD3 / RFU, TMA16 / Fold change vs veh, TMA16 / RFU, RWDD3 / Fold change vs veh, RWDD3 / RFU, BCAT1 / Fold change vs veh, BCAT1 / RFU, EDEM3 / Fold change vs veh, EDEM3 / RFU, TMEM33 / Fold change vs veh, TMEM33 / RFU, WDR75 / Fold change vs veh, WDR75 / RFU, AHCTF1 / Fold change vs veh, AHCTF1 / RFU, TFRC / Fold change vs veh, TFRC / RFU, ZDHHC17 / Fold change vs veh, ZDHHC17 / RFU, NOM1 / Fold change vs veh, NOM1 / RFU, ARL8B / Fold change vs veh, ARL8B / RFU, ZBTB11 / Fold change vs veh, ZBTB11 / RFU, TAMM41 / Fold change vs veh, TAMM41 / RFU, KIAA1704 /// LOC100996395 / Fold change vs veh, KIAA1704 /// LOC100996395 / RFU, ING1 / Fold change vs veh, ING1 / RFU, TRMT61B / Fold change vs veh, TRMT61B / RFU, FUBP3 / Fold change vs veh, FUBP3 / RFU, TP53 / Fold change vs veh, TP53 / RFU, TNKS2 / Fold change vs veh, TNKS2 / RFU, ZFP14 / Fold change vs veh, ZFP14 / RFU, ACTR2 / Fold change vs veh, ACTR2 / RFU, PPP3R1 / Fold change vs veh, PPP3R1 / RFU, PIK3R1 / Fold change vs veh, PIK3R1 / RFU, HNRNPA1 / Fold change vs veh, HNRNPA1 / RFU, RNF170 / Fold change vs veh, RNF170 / RFU, ZNF28 / Fold change vs veh, ZNF28 / RFU, RNGTT / Fold change vs veh, RNGTT / RFU, OGT / Fold change vs veh, OGT / RFU, BRD1 / Fold change vs veh, BRD1 / RFU, MARS / Fold change vs veh, MARS / RFU, ZNF655 / Fold change vs veh, ZNF655 / RFU, FAHD1 / Fold change vs veh, FAHD1 / RFU, BDP1 / Fold change vs veh, BDP1 / RFU, LRRCC1 / Fold change vs veh, LRRCC1 / RFU, ARID1A / Fold change vs veh, ARID1A / RFU, ZNF146 / Fold change vs veh, ZNF146 / RFU, ZNF330 / Fold change vs veh, ZNF330 / RFU, GPN3 / Fold change vs veh, GPN3 / RFU, C9orf123 / Fold change vs veh, C9orf123 / RFU, N4BP2L2 / Fold change vs veh, N4BP2L2 / RFU, ARFIP1 / Fold change vs veh, ARFIP1 / RFU, FAM179B / Fold change vs veh, FAM179B / RFU, BCL10 / Fold change vs veh, BCL10 / RFU, UHRF1BP1L / Fold change vs veh, UHRF1BP1L / RFU, BET1 / Fold change vs veh, BET1 / RFU, CNOT2 / Fold change vs veh, CNOT2 / RFU, ZNF268 / Fold change vs veh, ZNF268 / Fold change vs veh, ZNF507 / RFU, DGCR2 / Fold change vs veh, DGCR2 / RFU, WDSUB1 / Fold change vs veh, WDSUB1 / Fold change vs veh, HSP90B1 /// MIR3652 / RFU, ADSS / Fold change vs veh, ADSS / RFU, GK / Fold change vs veh, GK / RFU, ZNF148 / Fold change vs veh, ZNF148 / RFU, TAF9 / Fold change vs veh, TAF9 / RFU, SLC1A5 / Fold change vs veh, SLC1A5 / RFU, SLMO2 / Fold change vs veh, SLMO2 / RFU, ABCC4 / Fold change vs veh, ABCC4 / RFU, LOC101060439 /// RAP1B / Fold change vs veh, LOC101060439 /// RAP1B / RFU, RFX7 / Fold change vs veh, RFX7 / RFU, GTPBP10 / Fold change vs veh, GTPBP10 / RFU, CNEP1R1 / Fold change vs veh, CNEP1R1 / RFU, BIVM-ERCC5 /// ERCC5 / Fold change vs veh, BIVM-ERCC5 /// ERCC5 / RFU, ILF3 / Fold change vs veh, ILF3 / RFU 11762660_at / Fold change /veh 11762660_at / RFU VCAN (11757783_s_at) / Fold change /veh VCAN (11757783_s_at) / RFU DDX43 (11728927_at) / Fold change /veh DDX43 (11728927_at) / RFU KRT8 (11758188_x_at) / Fold change /veh KRT8 (11758188_x_at) / RFU NKD1 (11759106_at) / Fold change /veh NKD1 (11759106_at) / RFU SRD5A1 (11742802_a_at) / Fold change /veh SRD5A1 (11742802_a_at) / RFU TPSAB1 /// TPSB2 (11721975_s_at) / Fold change /veh TPSAB1 /// TPSB2 (11721975_s_at) / RFU GSTM3 (11746129_a_at) / Fold change /veh GSTM3 (11746129_a_at) / RFU IL23R (11737362_x_at) / Fold change /veh IL23R (11737362_x_at) / RFU TMEM51 (11727254_a_at) / Fold change /veh TMEM51 (11727254_a_at) / RFU PIWIL2 (11732686_x_at) / Fold change /veh PIWIL2 (11732686_x_at) / RFU ORM1 (11744905_x_at) / Fold change /veh ORM1 (11744905_x_at) / RFU CCDC152 (11743942_at) / Fold change /veh CCDC152 (11743942_at) / RFU ECM1 (11717891_a_at) / Fold change /veh ECM1 (11717891_a_at) / RFU IL23R (11748794_a_at) / Fold change /veh IL23R (11748794_a_at) / RFU TNFAIP8L3 (11732012_x_at) / Fold change /veh TNFAIP8L3 (11732012_x_at) / RFU MBOAT4 (11741988_at) / Fold change /veh MBOAT4 (11741988_at) / RFU 11764193_at / Fold change /veh 11764193_at / RFU TMEM53 (11763286_at) / Fold change /veh TMEM53 (11763286_at) / RFU MAGEB2 (11727129_at) / Fold change /veh MAGEB2 (11727129_at) / RFU TMEM200A (11744735_a_at) / Fold change /veh TMEM200A (11744735_a_at) / RFU CCDC152 (11751479_a_at) / Fold change /veh CCDC152 (11751479_a_at) / RFU FAM211A (11726209_a_at) / Fold change /veh FAM211A (11726209_a_at) / RFU RGS16 (11746705_a_at) / Fold change /veh RGS16 (11746705_a_at) / RFU VCAN (11755009_s_at) / Fold change /veh VCAN (11755009_s_at) / RFU RHOB (11743442_s_at) / Fold change /veh RHOB (11743442_s_at) / RFU RGS16 (11720943_a_at) / Fold change /veh RGS16 (11720943_a_at) / RFU RGS16 (11720944_at) / Fold change /veh RGS16 (11720944_at) / RFU, VPS4B / Fold change vs veh, VPS4B / RFU, CREB1 / Fold change vs veh, CREB1 / RFU, DNAJC13 / Fold change vs veh, DNAJC13 / RFU, GNAQ / Fold change vs veh, GNAQ / RFU, CDK5R1 / Fold change vs veh, CDK5R1 / RFU, ZRANB3 / Fold change vs veh, ZRANB3 / RFU, CUL4A / Fold change vs veh, CUL4A / RFU, CCNY / Fold change vs veh, CCNY / RFU, UFL1 / Fold change vs veh, UFL1 / RFU, COG3 / Fold change vs veh, COG3 / RFU, DIAPH2 / Fold change vs veh, DIAPH2 / RFU, SKA2 / Fold change vs veh, SKA2 / RFU, AFF3 / Fold change vs veh, AFF3 / RFU, LMF1 / Fold change vs veh, LMF1 / RFU, IPO11 / Fold change vs veh, IPO11 / RFU, DFFB / Fold change vs veh, DFFB / RFU, FOXP1 / Fold change vs veh, FOXP1 / RFU, CARD8 / Fold change vs veh, CARD8 / RFU, STRN3 / Fold change vs veh, STRN3 / RFU, ADK / Fold change vs veh, ADK / RFU, RASSF2 / Fold change vs veh, RASSF2 / RFU, WIPF1 / Fold change vs veh, WIPF1 / RFU, LARP1B / Fold change vs veh, LARP1B / RFU, RASA1 / Fold change vs veh, RASA1 / RFU, RB1 / Fold change vs veh, RB1 / RFU, PPFIA1 / Fold change vs veh, PPFIA1 / RFU, MAT2A / Fold change vs veh, MAT2A / RFU, CCT5 / Fold change vs veh, CCT5 / RFU, WDR92 / Fold change vs veh, WDR92 / RFU, CUX1 / Fold change vs veh, CUX1 / RFU, TTC7A / Fold change vs veh, TTC7A / RFU, TMEM135 / Fold change vs veh, TMEM135 / RFU, DEPTOR / Fold change vs veh, DEPTOR / RFU, CPM / Fold change vs veh, CPM / RFU, DNAJB6 / Fold change vs veh, DNAJB6 / RFU, CACNA2D3 / Fold change vs veh, CACNA2D3 / RFU, DTX4 / Fold change vs veh, DTX4 / RFU, TFCP2 / Fold change vs veh, TFCP2 / RFU, GMCL1 /// GMCL1P1 / Fold change vs veh, GMCL1 /// GMCL1P1 / RFU, AEBP2 / Fold change vs veh, AEBP2 / RFU, SNHG1 /// SNORD22 /// SNORD25 /// SNORD26 /// SNORD27 /// SNORD28 /// SNORD29 /// SNORD31 / Fold change vs veh, SNHG1 /// SNORD22 /// SNORD25 /// SNORD26 /// SNORD27 /// SNORD28 /// SNORD29 /// SNORD31 / Fold change (Aza/veh), C12orf56 (ProbeSet 11735607_a_at) / Fold change (ACY-1035/veh), C12orf56 (ProbeSet 11735607_a_at) / Fold change (Aza/veh), FGFR1OP (ProbeSet 11751329_s_at) / Fold change (ACY-1035/veh), FGFR1OP (ProbeSet 11751329_s_at) / Fold change (Aza/veh), VPS36 (ProbeSet 11739960_a_at) / Fold change (ACY-1035/veh), VPS36 (ProbeSet 11739960_a_at) / RFU SYPL1 (11715823_x_at) / Fold change /veh SYPL1 (11715823_x_at) / RFU IGFBP7 (11715501_s_at) / Fold change /veh IGFBP7 (11715501_s_at) / RFU REEP3 (11722064_at) / Fold change /veh REEP3 (11722064_at) / RFU IGLL1 (11728026_x_at) / Fold change /veh IGLL1 (11728026_x_at): dose or concentration left out as unconfirmed.

In the case of `Nc1ccc(-c2cccs2)cc1NC(=O)c1ccc2c(c1)cc(C1CC1)n2CCN1CCOCC1` [ACY-1035], the “Fold change vs veh, TFCP2” value was found to be 0.94.

(Values after paper PMC5218480 (PLoS ONE, 2017).)
